Patent US20260274798A1, “PENTAMIDINE ANALOGUE POLYMORPHS, FORMULATIONS, AND METHODS THEREOF” (AURANSA INC., priority 2023, published 2026)
Entries after “also recorded” stand apart in the source; their conditions may differ.

How the values were obtained:
Type in all cases: physicochemical
[1] = Thermodynamic solubility in water and a pH 7.4 phosphate buffer; conditions: slurry agitated at ambient ca. 24 hours, HPLC, diacetate
Description: (§1) 25.6 mL of 2-propanol was added to the lyophilized Compound A diacetate salt to form a slurry. The slurry was then temperature cycled between ambient and 40° C. in 4 hour cycles with agitation for ca. 24 hours. The slurry was then filtered and the isolated solids collected into a scintillation vial. A subsample was analyzed by XRPD and the vial was left uncapped to allow the solids to […] at ambient for ca. 24 hours. The material was then re-analyzed by XRPD post-drying and fully characterized using the following techniques: TG/DSC, DSC, DVS with post-DVS XRPD analysis, PLM, FT-IR, ^1H NMR, Purity by HPLC, TG/DSC with post TG/DSC XRPD analysis, and 7 Day Stability Assessment (ca. 10 mg of the material was stored at 40° C./75% RH. 80° C. and ambient light and humidity for 1 week. The solids were then analyzed by XRPD and purity obtained by HPLC). Thermodynamic solubility in water and a pH 7.4 phosphate buffer (The appropriate media was added in 100 μL aliquots to ca. 20 mg of the material to form a slurry. The samples were then sealed and agitated at ambient for ca. 24 hours before being centrifuge filtered. The isolated solids were analyzed by XRPD and the concentration of the mother liquors determined by HPLC).
The material appears highly insoluble in the phosphate buffer with all Forms having a solubility of 0.3 mg/mL except from Form 2 which has a solubility of 0.2 mg/mL.

[2] = Variable humidity X-ray powder diffraction (VH-XRPD); conditions: 30° C.
Description: XRPD analysis was carried out on a Philips X'Pert Pro Multipurpose diffractometer equipped with a humidity chamber. The samples were scanned between 4 and 36 °2θ using Cu K radiation (α1=1.54060 A; α2=1.54443 A; β=1.39225 A; α1:α2 ratio=0.5) running in Bragg-Brentano geometry (step size 0.008 °2θ) using 40 kV/40 mA generator settings. Measurements were performed at 30° C. during the humidity profile described below: • Initial scan at 40% RH • Humidity increased to 90% RH for 105 minutes (scan after 5 and 105 minutes) • Humidity decreased to 40% RH for 10 minutes (scan after 5 minutes) • Humidity decreased to 5% RH for 60 minutes (scan taken after 60 minutes) • Humidity decreased to 0% RH for 17 hours (scan taken after 17 hours) • Humidity increased to 40% RH for 60 minutes (scan taken at 30 and 60 minutes) • Humidity increased to 60% RH for 105 minutes (scan taken at 5 and 105 minutes) • Humidity increased to 80% RH for 60 minutes (scan taken at 5 and 55 minutes)

[3] = Dynamic vapour sorption (DVS) with post-DVS XRPD; conditions: 25° C.
Description: Approximately, 10-20 mg of sample was placed into a mesh vapour sorption balance pan and loaded into a DVS Intrinsic dynamic vapour sorption balance by Surface Measurement Systems. The sample was subjected to a ramping profile from 40-90% relative humidity (RH) at 10% increments, maintaining the sample at each step until a stable weight had been achieved (dm/dt 0.004%, minimum step length 30 minutes, maximum step length 500 minutes) at 25° C. After completion of the sorption cycle, the sample was dried using the same procedure to 0% RH and then a second sorption cycle back to 40% RH. Two cycles were performed. The weight change during the sorption/desorption cycles were plotted, allowing for the hygroscopic nature of the sample to be determined. XRPD analysis was then carried out on any solid retained.

[4] = 7 Day Stability Assessment (XRPD form and HPLC purity after storage); conditions: diacetate; for one-week stability: form by XRPD: 1 week (Form 1: 2 and 7 days)
Description: as §1

Question: Which “solubility” value ([1]; Water) does the source give for `CC(=O)O.CC(=O)O.N=C(N)c1ccc(OCCCCCOc2ccc(C(=N)N)nc2)cc1` [Form 9, 5-((5-(4-carbamimidoylphenoxy)pentyl)oxy)picolinimidamide diacetate] here?
Answer: 44.0 mg/mL

Question: What about the “solubility” value ([1]; pH 7.4 Phosphate Buffer) of the same molecule?
Answer: 0.3 mg/mL

Question: And the “form by VH-XRPD” value ([2]; 90% RH)?
Answer: convert to Form 2

Question: What about the “form by VH-XRPD” value ([2]; drying at 0% RH) of the same molecule?
Answer: becomes poorly crystalline

Question: And the “mass uptake at 90% RH” value ([3]; DVS, 90% RH, diacetate)?
Answer: 8%

Question: What about the “hygroscopicity by DVS” value ([3]; DVS, diacetate) of the same molecule?
Answer: hygroscopic

Question: What about the “form of recovered solid by post-DVS XRPD” value ([3]; after DVS cycles, diacetate) of the same molecule?
Answer: mixture of phases with peaks matching Form 9 and new peaks

Question: And the “weight loss on dehydration during DVS” value ([3]; below 10% RH)?
Answer: 7.3 wt. %

Question: What about the “weight increase on form change during DVS” value ([3]; first sorption cycle at 80% RH) of the same molecule?
Answer: 5.2 wt. %

Question: And the “form change during DVS” value ([3]; first sorption cycle at 80% RH, diacetate)?
Answer: form change to Form 2; also recorded: convert to Form 2

Question: What about the “one-week stability: form by XRPD” value ([4]; 40° C./75% RH) of the same molecule?
Answer: remained unchanged by XRPD

Question: What about the “one-week stability: form by XRPD” value ([4]; 80° C.) of the same molecule?
Answer: convert to Form 1

Question: What about the “one-week stability: form by XRPD” value ([4]; ambient temperature and humidity) of the same molecule?
Answer: remained unchanged by XRPD

Question: What about the “1 Week Stability” value ([4]; form by XRPD after storage at 40° C./75% RH, ambient or 80° C.) of the same molecule?
Answer: Converts to pattern 1 at 80 °C
